Measurements from patent US11530222B2, “Substituted pyrrolopyrimidine and pyrazolopyrimidine as Bruton's tyrosine kinase (BTK) degraders” (ACCUTAR BIOTECHNOLOGY INC., priority 2021, dated 2022).

The compounds below were run against T1, BTK (Homo sapiens, UniProt Q06187) (assay: BTK degradative activity in a RAMOS cell line (Western blot)). Conditions: 6 hours after administration, read-out: RAMOS BTK Degradation DC50.
T1 construct: BTK Degradative Activity of Exemplary Compounds of the Present Disclosure in a RAMOS Cell Line; host or cells: RAMOS
Format: cell-based
Procedure: RAMOS (ATCC) cells were plated in 24-well plates at 8×10^5 cells/well in the RPMI growth medium containing 10% heat-inactivated FBS and 1× Penicillin Streptomycin, and then incubated at 37° C. overnight. The following day, the test compound was administered to the cells by using 1000× compound stock solution prepared in DMSO at various concentrations. After administration of the compound, the cells were then incubated at 37° C. for 6 hours.
Upon completion, the cells were collected by centrifugation and lysed in Laemmli sample buffer (1×; VWR International). Proteins in cell lysate were separated by SDS-PAGE and transferred to Odyssey nitrocellulose membranes (Licor) with Iblot® dry blotting transfer system (ThermoFisher). Nonspecific binding was blocked by incubating membranes with Intercept Blocking Buffer (Licor) for 1 hour at room temperature with gentle shaking. The membranes were then incubated overnight at 4° C. with primary antibodies anti-BTK (Cell signaling, cat. #8547) and anti-GAPDH (Cell signaling, cat. #5179) diluted in Intercept Blocking Buffer containing 0.1% Tween 20. After washing 3 times with TBS-T, the membranes were incubated with IRDye® 800CW goat anti-mouse IgG (1:20,000, Licor) or IRDye® 800CW goat anti-rabbit IgG (1:20,000, Licor) for 1 hour. After TBS-T washes, membranes were rinsed in TBS and scanned on Odyssey® CLx Imaging System (Licor). The bands were quantified using Image Studio™ Software (Licor).
Table 3 summarizes the BTK degradative activity of exemplary compounds of the present disclosure in a RAMOS cell line 6 hours after administration. The DC50 values (i.e., the concentration of test compound at which 50% of the target protein is degraded) were calculated. A designation of “A” corresponds to a DC50 value less than 10 nM. A designation of “B” corresponds to a DC50 value greater than or equal to 10 nM and less than 100 nM. A designation of “C” corresponds to a DC50 value greater than or equal to 100 nM.

T1 sequence (Q06187 whole entry): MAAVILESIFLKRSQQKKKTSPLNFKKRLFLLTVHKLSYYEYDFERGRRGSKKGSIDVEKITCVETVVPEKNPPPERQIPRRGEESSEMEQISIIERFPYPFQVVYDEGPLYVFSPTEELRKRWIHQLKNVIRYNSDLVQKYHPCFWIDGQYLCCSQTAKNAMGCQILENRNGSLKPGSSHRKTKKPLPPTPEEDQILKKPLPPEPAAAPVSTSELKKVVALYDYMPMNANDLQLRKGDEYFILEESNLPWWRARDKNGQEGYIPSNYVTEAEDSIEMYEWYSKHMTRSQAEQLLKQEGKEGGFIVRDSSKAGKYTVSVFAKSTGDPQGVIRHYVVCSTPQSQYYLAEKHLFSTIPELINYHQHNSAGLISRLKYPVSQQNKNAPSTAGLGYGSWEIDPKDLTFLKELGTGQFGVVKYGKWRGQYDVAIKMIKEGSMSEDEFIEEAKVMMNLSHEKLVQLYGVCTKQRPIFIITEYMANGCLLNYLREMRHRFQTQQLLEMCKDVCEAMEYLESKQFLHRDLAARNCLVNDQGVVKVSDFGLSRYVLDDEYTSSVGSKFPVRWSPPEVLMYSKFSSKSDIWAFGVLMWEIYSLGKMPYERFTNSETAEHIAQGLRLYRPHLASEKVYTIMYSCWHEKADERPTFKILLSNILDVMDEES

Compound	DC50
O=C1CCC(N2C(=O)c3ccc(N4CCN(C5CC(CC(=O)N6CCC(Nc7ncnc8[nH]cc(C(=O)c9ccc(Oc%10ccccc%10)cc9Cl)c78)CC6)C5)CC4)cc3C2=O)C(=O)N1 (stereo not drawn) [Compound 37, 5-(4-(3-(2-(4-((5-(2-chloro-4-phenoxybenzoyl)-7H-pyrrolo[2,3-d]pyrimidin-4-yl)amino)piperidin-1-yl)-2-oxoethyl)cyclobutyl)piperazin-1-yl)-2-(2,6-dioxopiperidin-3-yl)isoindoline-1,3-dione]	10 to 100 nM
O=C1CCC(N2C(=O)c3cccc(C#CCCCCCC(=O)N4CCC(Nc5ncnc6[nH]cc(C(=O)c7ccc(Oc8ccccc8)cc7Cl)c56)CC4)c3C2=O)C(=O)N1 (stereo not drawn) [Compound 38, 4-(8-(4-((5-(2-chloro-4-phenoxybenzoyl)-7H-pyrrolo[2,3-d]pyrimidin-4-yl)amino)piperidin-1-yl)-8-oxooct-1-yn-1-yl)-2-(2,6-dioxopiperidin-3-yl)isoindoline-1,3-dione]	≥ 100 nM
O=C1CCC(N2Cc3c(C#CCCCCCCC(=O)N4CCC(Nc5ncnc6[nH]cc(C(=O)c7ccc(Oc8ccccc8)cc7Cl)c56)CC4)cccc3C2=O)C(=O)N1 (stereo not drawn) [Compound 39, 3-(4-(9-(4-((5-(2-chloro-4-phenoxybenzoyl)-7H-pyrrolo[2,3-d]pyrimidin-4-yl)amino)piperidin-1-yl)-9-oxonon-1-yn-1-yl)-1-oxoisoindolin-2-yl)piperidine-2,6-dione]	≥ 100 nM
O=C1CCC(N2Cc3c(C#CCCCCCC(=O)N4CCC(Nc5ncnc6[nH]cc(C(=O)c7ccc(Oc8ccccc8)cc7Cl)c56)CC4)cccc3C2=O)C(=O)N1 (stereo not drawn) [Compound 40, 3-(4-(8-(4-((5-(2-chloro-4-phenoxybenzoyl)-7H-pyrrolo[2,3-d]pyrimidin-4-yl)amino)piperidin-1-yl)-8-oxooct-1-yn-1-yl)-1-oxoisoindolin-2-yl)piperidine-2,6-dione]	≥ 100 nM
O=C1CCC(N2Cc3c(C#CCCCCC(=O)N4CCC(Nc5ncnc6[nH]cc(C(=O)c7ccc(Oc8ccccc8)cc7Cl)c56)CC4)cccc3C2=O)C(=O)N1 (stereo not drawn) [Compound 41, 3-(4-(7-(4-((5-(2-chloro-4-phenoxybenzoyl)-7H-pyrrolo[2,3-d]pyrimidin-4-yl)amino)piperidin-1-yl)-7-oxohept-1-yn-1-yl)-1-oxoisoindolin-2-yl)piperidine-2,6-dione]	≥ 100 nM
O=C1CC[C@H](N2Cc3cc(N4CCN(C5CC(CC(=O)N6CCC(Nc7ncnc8[nH]cc(C(=O)c9ccc(Oc%10ccccc%10)cc9Cl)c78)CC6)C5)CC4)ccc3C2=O)C(=O)N1 (stereo partly drawn) [Compound 42, (S)-3-(5-(4-(3-(2-(4-((5-(2-chloro-4-phenoxybenzoyl)-7H-pyrrolo[2,3-d]pyrimidin-4-yl)amino)piperidin-1-yl)-2-oxoethyl)cyclobutyl)piperazin-1-yl)-1-oxoisoindolin-2-yl)piperidine-2,6-dione]	< 10 nM
O=C1CCC(N2C(=O)c3ccc(N4CCN(C5CC(CC(=O)N6CCC[C@@H](Nc7ncnc8[nH]cc(C(=O)c9ccc(Oc%10ccccc%10)cc9Cl)c78)C6)C5)CC4)cc3C2=O)C(=O)N1 (stereo partly drawn) [Compound 43, 5-(4-(3-(2-((R)-3-((5-(2-chloro-4-phenoxybenzoyl)-7H-pyrrolo[2,3-d]pyrimidin-4-yl)amino)piperidin-1-yl)-2-oxoethyl)cyclobutyl)piperazin-1-yl)-2-(2,6-dioxopiperidin-3-yl)isoindoline-1,3-dione]	< 10 nM
O=C1CCC(N2C(=O)c3ccc(N4CCC(N5CC(CC(=O)N6CCC(Nc7ncnc8[nH]cc(C(=O)c9ccc(Oc%10ccccc%10)cc9Cl)c78)CC6)C5)CC4)cc3C2=O)C(=O)N1 (stereo not drawn) [Compound 48, 5-(4-(3-(2-(4-((5-(2-chloro-4-phenoxybenzoyl)-7H-pyrrolo[2,3-d]pyrimidin-4-yl)amino)piperidin-1-yl)-2-oxoethyl)azetidin-1-yl)piperidin-1-yl)-2-(2,6-dioxopiperidin-3-yl)isoindoline-1,3-dione]	< 10 nM
COc1ccc(C(=O)N2CCN(CCCCCC(=O)N3CCC(Nc4ncnc5[nH]cc(C(=O)c6ccc(Oc7ccccc7)cc6Cl)c45)CC3)CC2)cc1N1CCC(=O)NC1=O [Compound 71, 1-(5-(4-(6-(4-((5-(2-chloro-4-phenoxybenzoyl)-7H-pyrrolo[2,3-d]pyrimidin-4-yl)amino)piperidin-1-yl)-6-oxohexyl)piperazine-1-carbonyl)-2-methoxyphenyl) dihydropyrimidine-2,4(1H,3H)-dione]	10 to 100 nM
COc1ccc(C(=O)N2CCN(CCCCC(=O)N3CCC(Nc4ncnc5[nH]cc(C(=O)c6ccc(Oc7ccccc7)cc6Cl)c45)CC3)CC2)cc1N1CCC(=O)NC1=O [Compound 72, 1-(5-(4-(5-(4-((5-(2-chloro-4-phenoxybenzoyl)-7H-pyrrolo[2,3-d]pyrimidin-4-yl)amino)piperidin-1-yl)-5-oxopentyl)piperazine-1-carbonyl)-2-methoxyphenyl)dihydropyrimidine-2,4(1H,3H)-dione]	≥ 100 nM
COc1ccc(C(=O)N2CCC(N3CCC(CC(=O)N4CCC(Nc5ncnc6[nH]cc(C(=O)c7ccc(Oc8ccccc8)cc7Cl)c56)CC4)CC3)CC2)cc1N1CCC(=O)NC1=O [Compound 73, 1-(5-(4-(2-(4-((5-(2-chloro-4-phenoxybenzoyl)-7H-pyrrolo[2,3-d]pyrimidin-4-yl)amino)piperidin-1-yl)-2-oxoethyl)-[1,4′-bipiperidine]-1′-carbonyl)-2-methoxyphenyl)dihydropyrimidine-2,4(1H,3H)-dione]	10 to 100 nM
COc1ccc(C(=O)N2CCN(CCC3CCN(c4ccc(Nc5ncnc6[nH]cc(C(=O)c7ccc(Oc8ccccc8)cc7Cl)c56)cc4F)CC3)CC2)cc1N1CCC(=O)NC1=O [Compound 76, 1-(5-(4-(2-(1-(4-((5-(2-chloro-4-phenoxybenzoyl)-7H-pyrrolo[2,3-d]pyrimidin-4-yl)amino)-2-fluorophenyl)piperidin-4-yl)ethyl)piperazine-1-carbonyl)-2-methoxyphenyl)dihydropyrimidine-2,4(1H,3H)-dione]	≥ 100 nM

Second part, the compound after the results:

DC50	Compound
≥ 100 nM	O=C1CCC(N2C(=O)c3ccc(N4CCN(CCC5CCN(c6ccc(Nc7ncnc8[nH]cc(C(=O)c9ccc(Oc%10ccccc%10)cc9Cl)c78)cc6F)CC5)CC4)cc3C2=O)C(=O)N1 (stereo not drawn) [Compound 44, 5-(4-(2-(1-(4-((5-(2-chloro-4-phenoxybenzoyl)-7H-pyrrolo[2,3-d]pyrimidin-4-yl)amino)-2-fluorophenyl)piperidin-4-yl)ethyl)piperazin-1-yl)-2-(2,6-dioxopiperidin-3-yl)isoindoline-1,3-dione]
≥ 100 nM	O=C1CC[C@H](N2Cc3cc(N4CCN(CCC5CCN(c6ccc(Nc7ncnc8[nH]cc(C(=O)c9ccc(Oc%10ccccc%10)cc9Cl)c78)cc6F)CC5)CC4)ccc3C2=O)C(=O)N1 [Compound 45, (S)-3-(5-(4-(2-(1-(4-((5-(2-chloro-4-phenoxybenzoyl)-7H-pyrrolo[2,3-d]pyrimidin-4-yl)amino)-2-fluorophenyl)piperidin-4-yl)ethyl)piperazin-1-yl)-1-oxoisoindolin-2-yl)piperidine-2,6-dione]
≥ 100 nM	O=C1CC[C@H](N2Cc3cc(N4CCN(CC5CCN(c6ccc(Nc7ncnc8[nH]cc(C(=O)c9ccc(Oc%10ccccc%10)cc9Cl)c78)cc6F)CC5)CC4)ccc3C2=O)C(=O)N1 [Compound 46, (S)-3-(5-(4-((1-(4-((5-(2-chloro-4-phenoxybenzoyl)-7H-pyrrolo[2,3-d]pyrimidin-4-yl)amino)-2-fluorophenyl)piperidin-4-yl)methyl)piperazin-1-yl)-1-oxoisoindolin-2-yl)piperidine-2,6-dione]
≥ 100 nM	O=C1CCC(N2C(=O)c3ccc(N4CCN(CC5CCN(c6ccc(Nc7ncnc8[nH]cc(C(=O)c9ccc(Oc%10ccccc%10)cc9Cl)c78)cc6F)CC5)CC4)cc3C2=O)C(=O)N1 (stereo not drawn) [Compound 47, 5-(4-((1-(4-((5-(2-chloro-4-phenoxybenzoyl)-7H-pyrrolo[2,3-d]pyrimidin-4-yl)amino)-2-fluorophenyl)piperidin-4-yl)methyl)piperazin-1-yl)-2-(2,6-dioxopiperidin-3-yl)isoindoline-1,3-dione]
≥ 100 nM	COc1ccc(C(=O)N2CCN(CC3CCN(c4ccc(Nc5ncnc6[nH]cc(C(=O)c7ccc(Oc8ccccc8)cc7Cl)c56)cc4F)CC3)CC2)cc1N1CCC(=O)NC1=O [Compound 74, 1-(5-(4-((1-(4-((5-(2-chloro-4-phenoxybenzoyl)-7H-pyrrolo[2,3-d]pyrimidin-4-yl)amino)-2-fluorophenyl)piperidin-4-yl)methyl)piperazine-1-carbonyl)-2-methoxyphenyl)dihydropyrimidine-2,4(1H,3H)-dione]
10 to 100 nM	COc1ccc(C(=O)N2CCCN(CC3CCN(c4ccc(Nc5ncnc6[nH]cc(C(=O)c7ccc(Oc8ccccc8)cc7Cl)c56)cc4F)CC3)CC2)cc1N1CCC(=O)NC1=O [Compound 75, 1-(5-(4-((1-(4-((5-(2-chloro-4-phenoxybenzoyl)-7H-pyrrolo[2,3-d]pyrimidin-4-yl)amino)-2-fluorophenyl)piperidin-4-yl)methyl)-1,4-diazepane-1-carbonyl)-2-methoxyphenyl)dihydropyrimidine-2,4(1H,3H)-dione]
